In one test the target is SARS-CoV-2 Mpro (UniProt P0DTD1).
In a further test the target is MERS-CoV Mpro (UniProt K9N7C7).

SMILES strings stand for the structures.

As for `O=C(NCc1cccs1)[C@@H]1CN(C(=O)c2cccnc2)CCN1c1ccc(Cl)c(Cl)c1`, the IC50 against SARS-CoV-2 Mpro turned out to be 0.123 µM; against MERS-CoV Mpro, 57.5 µM.

For the origin of these results see the ASAP Discovery antiviral challenge data (2025).
